Test results as given in PMC7584679 (Journal of Advanced Research, 2020).

Target: hTS (recombinant human TS, thymidylate synthase) (Homo sapiens, UniProt P04818)
Test: UV absorbance at […] nm, TS activity
Assay type: biochemical

Sequence of hTS (recombinant human TS, thymidylate synthase) (P04818 2-313): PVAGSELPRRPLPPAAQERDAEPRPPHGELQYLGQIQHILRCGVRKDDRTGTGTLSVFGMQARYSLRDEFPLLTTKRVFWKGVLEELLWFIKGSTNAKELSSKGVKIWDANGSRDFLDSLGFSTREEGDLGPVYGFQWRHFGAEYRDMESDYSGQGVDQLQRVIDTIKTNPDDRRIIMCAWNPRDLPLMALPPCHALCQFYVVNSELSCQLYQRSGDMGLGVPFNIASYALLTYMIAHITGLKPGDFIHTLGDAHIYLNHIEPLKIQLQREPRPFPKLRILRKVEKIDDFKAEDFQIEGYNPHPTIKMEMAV

| IC50 | SMILES |
| --- | --- |
| 3150 ± 610 nM | O=c1[nH]cc(S(=O)(=O)Nc2cccc(-c3nnc(-c4ccccc4)o3)c2)c(=O)[nH]1 [7a, N-(3-(5-phenyl-1,3,4-oxadiazol-2-yl)phenyl)-2,4-dihydroxypyrimidine-5-sulfuramide] |
| 2750 ± 290 nM | Cc1ccccc1-c1nnc(-c2cccc(NS(=O)(=O)c3c[nH]c(=O)[nH]c3=O)c2)o1 [7b, N-(3-(5-(o-tolyl)-1,3,4-oxadiazol-2-yl)phenyl)-2,4-dihydroxypyrimidine −5-sulfonamide] |
| 1460 ± 370 nM | Cc1cccc(-c2nnc(-c3cccc(NS(=O)(=O)c4c[nH]c(=O)[nH]c4=O)c3)o2)c1 [7c, N-(3-(5-(m-tolyl)-1,3,4-oxadiazol-2-yl)phenyl)-2,4-dihydroxypyrimidine-5-sulfonamide] |
| 1790 ± 120 nM | Cc1ccc(-c2nnc(-c3cccc(NS(=O)(=O)c4c[nH]c(=O)[nH]c4=O)c3)o2)cc1 [7d, N-(3-(5-(p-tolyl)-1,3,4-oxadiazol-2-yl)phenyl)-2,4-dihydroxypyrimidine-5-sulfonamide] |
| 650 ± 430 nM | O=c1[nH]cc(S(=O)(=O)Nc2cccc(-c3nnc(-c4ccccc4Cl)o3)c2)c(=O)[nH]1 [7e, N-(3-(5-(2-chlorophenyl)-1,3,4-oxadiazol-2-yl)phenyl)-2,4-dihydroxypyrimidine-5-sulfonamide] |
| 110 ± 30 nM | O=c1[nH]cc(S(=O)(=O)Nc2cccc(-c3nnc(-c4cccc(Cl)c4)o3)c2)c(=O)[nH]1 [7f, N-(3-(5-(3-chlorophenyl)-1,3,4-oxadiazol-2-yl)phenyl)-2,4-dihydroxypyrimidine-5-sulfonamide] |
| 440 ± 100 nM | O=c1[nH]cc(S(=O)(=O)Nc2cccc(-c3nnc(-c4ccc(Cl)cc4)o3)c2)c(=O)[nH]1 [7g, N-(3-(5-(4-chlorophenyl)-1,3,4-oxadiazol-2-yl)phenyl)-2,4-dihydroxypyrimidine-5-sulfonamide] |
| 5180 ± 730 nM | O=c1[nH]cc(S(=O)(=O)Nc2cccc(-c3nnc(-c4ccccc4F)o3)c2)c(=O)[nH]1 [7h, N-(3-(5-(2-fluorophenyl)-1,3,4-oxadiazol-2-yl)phenyl)-2,4-dihydroxypyrimidine-5-sulfonamide] |
| 4610 ± 1100 nM | O=c1[nH]cc(S(=O)(=O)Nc2cccc(-c3nnc(-c4cccc(F)c4)o3)c2)c(=O)[nH]1 [7i, N-(3-(5-(3-fluorophenyl)-1,3,4-oxadiazol-2-yl)phenyl)-2,4-dihydroxypyrimidine-5-sulfonamide] |
| 1160 ± 370 nM | O=c1[nH]cc(S(=O)(=O)Nc2cccc(-c3nnc(-c4ccccc4Br)o3)c2)c(=O)[nH]1 [7k, N-(3-(5-(2-bromophenyl)-1,3,4-oxadiazol-2-yl)phenyl)-2,4-dihydroxypyrimidine-5-sulfonamide] |
| 930 ± 280 nM | O=c1[nH]cc(S(=O)(=O)Nc2cccc(-c3nnc(-c4cccc(Br)c4)o3)c2)c(=O)[nH]1 [7l, N-(3-(5-(3-bromophenyl)-1,3,4-oxadiazol-2-yl)phenyl)-2,4-dihydroxypyrimidine-5-sulfonamide] |
| 1290 ± 120 nM | O=c1[nH]cc(S(=O)(=O)Nc2cccc(-c3nnc(-c4ccc(Br)cc4)o3)c2)c(=O)[nH]1 [7m, N-(3-(5-(4-bromophenyl)-1,3,4-oxadiazol-2-yl)phenyl)-2,4-dihydroxypyrimidine-5-sulfonamide] |
| 2440 ± 880 nM | Nc1nc2[nH]cc(CCc3ccc(C(=O)N[C@@H](CCC(=O)O)C(=O)O)cc3)c2c(=O)[nH]1 [PTX] |
